pIC50: −log10 of the molar value.
Assays:
[1] = system: Ras; experiment: Determination of total Ras by Western immunoblotting with pan anti-Ras antibody; assay type: cell-based, human; settings: OVCAR-3 cells; for reduction in Ras: 24 h
Procedure: (§1) OVCAR-3 cells were plated at a density of 1.5×10^6 cells in 10-cm plates and grown for 24 h in the presence of 25 or 50 μM FTS. The cells were lysed in 0.5 mL of the Ras-binding domain of Raf-1 (RBD) lysis buffer [Herrmann, C., Martin, G. A. and Wittinghofer, A., J Biol Chem 270:2901-05 (1995)] containing 0.1 mM orthovanadate. Lysates containing 50 μg protein were used to determine total Ras by Western immunoblotting with pan anti-Ras antibody (Ab) and lysates containing 1500 μg protein to determine Ras-GTP by the glutathione S-transferase RBD pull-down assay followed by Western immunoblotting with pan anti-Ras Ab and enhanced chemiluminescence, as previously described [Fridman, M., Maruta, H. and Gonez, J., J Biol Chem 275:30363-71 (2000)]. Mouse anti β-tubulin Ab (AK-15, Sigma) was used at a dilution of 1:500 to confirm equal protein loading.
(§2) In view of the finding that OVCAR-3 cells expressed significant amounts of Ras and active Ras-GTP (FIGS. 1a and b), Applicants examined whether the Ras antagonist FTS would affect the amounts of Ras and Ras-GTP in these cells in the same way as it affects active Ras in other cell lines [Marom, M., supra.; Elad, G., Paz, A., Haklai, R., Marciano, D., Cox, A., Kloog, Y. Biomed Biochim Acta 8:1452:228-42 (1999); Weisz, B., Giehl, K., Gana-Weisz, M. et al. Oncogene 18:2579-88 (1999)]. The cells were grown for 24 h in serum containing medium with or without 25 or 50 μM FTS. Similar conditions were used in earlier studies with other cell lines [Elad, supra.; Weisz, supra.]. […] Quantitative analysis of the immunoblots disclosed that FTS, at concentrations of 25 and 50 μM, caused significant reductions of 5% and 39%, respectively, in Ras and 19% and 41%, respectively, in Ras-GTP (FIG. 1b).

[2] = system: OVCAR-3 cells; experiment: cells; assay type: cell-based; settings: Homo sapiens, 50 μM FTS alone, read-out: inhibition of cell growth
Procedure: OVCAR-3 cells were plated at a density of 10×10^4 cells per well in 24-well plates and grown for 3 days in the presence of 50 μM FTS. […] This protocol was chosen in order to induce only a small cytotoxic effect, thus enabling a determination of any possible enhanced effect with the Ras inhibitor. The number of live cells was evaluated 3 days later by MTT, as described earlier.
Thus, the greater than additive effect of these two drugs was manifested in an additional decrease of 35% in cell number, which was accounted for by death of the cells.

[3] = system: Ras-GTP; experiment: Determination of Ras-GTP by GST-RBD pull-down assay and Western immunoblotting; assay type: cell-based, human; settings: OVCAR-3 cells; for reduction in Ras-GTP: 24 h
Procedure: as §1, §2

[4] = system: OVCAR-3 cells; experiment: cells; assay type: cell-based
Procedure: The human epithelial ovarian cell line OVCAR-3 was obtained from the American Tissue Culture Collection. Cells were routinely grown in Roswell Park Memorial Institute 1640 medium containing 10% fetal calf serum, 0.1 mM nonessential amino acids, and 2 mM L-glutamine, at 37° C. in a humidified atmosphere of 95% air/5% CO2. To examine the effect of FTS on the anchorage-dependent cell growth, cells were plated at a density of 10×10^4 cells per well in 24-well plates to which either 0.1% DMSO (control) or the test concentrations of FTS were added after 24 h. […] Cells were stained with 3-(4,5-dimethylthiosol-2-yl)-2,5-diphenyltetrazolium bromide (MTT, Sigma Chemical Co., St. Louis, Mo.), incubated for 90 min, and dissolved in 0.3 mL of 100% DMSO. The extent of staining was determined spectrophotometrically (A570, A630) using an enzyme-linked immunosorbent assay reader. All assays were carried out in quadruplicate samples and were repeated three times.
Anchorage-dependent cell growth was examined in cells that were grown in the presence of FTS.

[5] = FTS alone, concentration not given

**Q.** What does the source list for `CC(C)=CCC/C(C)=C/CC/C(C)=C/CSc1ccccc1C(=O)O` [FTS, farnesylthiosalicylic acid]?
**A.** reduction in Ras ([1]; 25 μM FTS): 5%; reduction in Ras ([1]; 50 μM FTS): 39%; Ras reduced (summary statement) [1, 5]: 40%; inhibition at 50 µM [2]: 45%; reduction in Ras-GTP ([3]; 25 μM FTS): 19%; reduction in Ras-GTP ([3]; 50 μM FTS): 41%; Ras-GTP reduced (summary statement) [3, 5]: 40%; pIC50 ([4]; Homo sapiens, OVCAR-3, read-out: IC50 (concentration causing 50% inhibition of cell growth)): 4.27; foci formation and growth ([4]; OVCAR-3 cultures, 7 days with 25 or 50 μM FTS): strongly inhibited
